Reference: PubChem BioAssay AID1259407 (Chemical Carcinogenesis Research Information System (CCRIS), 2018)
Active and inactive are the calls of the source. No rule for the calls is given here.

Test system: CCRIS mutagenicity, Ames/micronucleus/aberration tests
Assay: CCRIS mutagenicity studies
[1] = Test System: AMES SALMONELLA TYPHIMURIUM, Strain/Indicator: TA100, Metabolic Activation: NONE, Method: PREINCUBATION
[2] = Test System: AMES SALMONELLA TYPHIMURIUM, Strain/Indicator: TA100, Metabolic Activation: RAT LIVER S-9, PHENOBARBITAL AND 5,6-BENZOFLAVONE, Method: PREINCUBATION
[3] = Test System: AMES SALMONELLA TYPHIMURIUM, Strain/Indicator: TA100, Metabolic Activation: NONE, Method: STANDARD PLATE
[4] = Test System: AMES SALMONELLA TYPHIMURIUM, Strain/Indicator: TA98, Metabolic Activation: NONE, Method: STANDARD PLATE
[5] = Test System: AMES SALMONELLA TYPHIMURIUM, Strain/Indicator: TA98, Metabolic Activation: RAT, LIVER, S-9, AROCLOR 1254, Method: STANDARD PLATE
[6] = Test System: AMES SALMONELLA TYPHIMURIUM, Strain/Indicator: TA100, Metabolic Activation: RAT, LIVER, S-9, AROCLOR 1254, Method: STANDARD PLATE
[7] = Test System: AMES SALMONELLA TYPHIMURIUM, Strain/Indicator: TA98, Metabolic Activation: NONE, Method: PREINCUBATION
[8] = Test System: AMES SALMONELLA TYPHIMURIUM, Strain/Indicator: TA1535, Metabolic Activation: NONE, Method: PREINCUBATION

Nc1ccc2ncsc2c1
mutagenic call [1]: inactive; negative
mutagenic call [2]: inactive; negative
mutagenic call (Test System: AMES SALMONELLA TYPHIMURIUM, Strain/Indicator: YG1029, Metabolic Activation: NONE, Method: PREINCUBATION): inactive; negative
mutagenic call (Test System: AMES SALMONELLA TYPHIMURIUM, Strain/Indicator: YG1029, Metabolic Activation: RAT LIVER S-9, PHENOBARBITAL AND 5,6-BENZOFLAVONE, Method: PREINCUBATION): active; positive

Oc1ccc2cccnc2c1
mutagenic call [3]: inactive; negative
mutagenic call (Test System: AMES SALMONELLA TYPHIMURIUM, Strain/Indicator: TA100, Metabolic Activation: RAT, LIVER, S-9, AROCLOR 1254 (10% OR 20%), Method: STANDARD PLATE): inactive; negative

C=CC(=O)OCCOCCOC(=O)C=C
mutagenic call [4]: inactive; negative
mutagenic call [5]: inactive; negative
mutagenic call (Test System: AMES SALMONELLA TYPHIMURIUM, Strain/Indicator: TA98, Metabolic Activation: RAT, LIVER, S-9, SODIUM PHENOBARBITAL, Method: STANDARD PLATE): inactive; negative
mutagenic call [3]: inactive; negative
mutagenic call [6]: inactive; negative
mutagenic call (Test System: AMES SALMONELLA TYPHIMURIUM, Strain/Indicator: TA100, Metabolic Activation: RAT, LIVER, S-9, SODIUM PHENOBARBITAL, Method: STANDARD PLATE): inactive; negative
mutagenic call (Test System: AMES SALMONELLA TYPHIMURIUM, Strain/Indicator: TA1535, Metabolic Activation: NONE, Method: STANDARD PLATE): inactive; negative
mutagenic call (Test System: AMES SALMONELLA TYPHIMURIUM, Strain/Indicator: TA1535, Metabolic Activation: RAT, LIVER, S-9, AROCLOR 1254, Method: STANDARD PLATE): inactive; negative
mutagenic call (Test System: AMES SALMONELLA TYPHIMURIUM, Strain/Indicator: TA1535, Metabolic Activation: RAT, LIVER, S-9, SODIUM PHENOBARBITAL, Method: STANDARD PLATE): inactive; negative
mutagenic call (Test System: AMES SALMONELLA TYPHIMURIUM, Strain/Indicator: TA1537, Metabolic Activation: NONE, Method: STANDARD PLATE): inactive; negative
mutagenic call (Test System: AMES SALMONELLA TYPHIMURIUM, Strain/Indicator: TA1537, Metabolic Activation: RAT, LIVER, S-9, AROCLOR 1254, Method: STANDARD PLATE): inactive; negative
mutagenic call (Test System: AMES SALMONELLA TYPHIMURIUM, Strain/Indicator: TA1537, Metabolic Activation: RAT, LIVER, S-9, SODIUM PHENOBARBITAL, Method: STANDARD PLATE): inactive; negative
mutagenic call (Test System: AMES SALMONELLA TYPHIMURIUM, Strain/Indicator: TA1538, Metabolic Activation: NONE, Method: STANDARD PLATE): inactive; negative
mutagenic call (Test System: AMES SALMONELLA TYPHIMURIUM, Strain/Indicator: TA1538, Metabolic Activation: RAT, LIVER, S-9, AROCLOR 1254, Method: STANDARD PLATE): inactive; negative
mutagenic call (Test System: AMES SALMONELLA TYPHIMURIUM, Strain/Indicator: TA1538, Metabolic Activation: RAT, LIVER, S-9, SODIUM PHENOBARBITAL, Method: STANDARD PLATE): inactive; negative

CN(c1nccc(=O)[nH]1)C1CCN(c2nc3ccccc3n2Cc2ccc(F)cc2)CC1
mutagenic call [7]: inactive; negative
mutagenic call (Test System: AMES SALMONELLA TYPHIMURIUM, Strain/Indicator: TA98, Metabolic Activation: RAT LIVER S-9, PHENOBARBITAL AND 5,6-BENZOFLAVONE, Method: PREINCUBATION): inactive; negative
mutagenic call [1]: inactive; negative
mutagenic call [2]: inactive; negative
mutagenic call [8]: inactive; negative
mutagenic call (Test System: AMES SALMONELLA TYPHIMURIUM, Strain/Indicator: TA1535, Metabolic Activation: RAT LIVER S-9, PHENOBARBITAL AND 5,6-BENZOFLAVONE, Method: PREINCUBATION): inactive; negative
mutagenic call (Test System: AMES SALMONELLA TYPHIMURIUM, Strain/Indicator: TA1537, Metabolic Activation: NONE, Method: PREINCUBATION): inactive; negative
mutagenic call (Test System: AMES SALMONELLA TYPHIMURIUM, Strain/Indicator: TA1537, Metabolic Activation: RAT LIVER S-9, PHENOBARBITAL AND 5,6-BENZOFLAVONE, Method: PREINCUBATION): inactive; negative
mutagenic call (Test System: E.COLI, Strain/Indicator: WP2 UVRA, Metabolic Activation: NONE, Method: PREINCUBATION): inactive; negative
mutagenic call (Test System: E.COLI, Strain/Indicator: WP2 UVRA, Metabolic Activation: RAT LIVER S-9, PHENOBARBITAL AND 5,6-BENZOFLAVONE, Method: PREINCUBATION): inactive; negative

CN(C)c1ccc(C(=C2C=CC(=N)C=C2)c2ccc(N(C)C)cc2)cc1
mutagenic call (Test System: AMES SALMONELLA TYPHIMURIUM, Strain/Indicator: TA97, Metabolic Activation: NONE, Method: STANDARD PLATE): inactive; negative
mutagenic call (Test System: AMES SALMONELLA TYPHIMURIUM, Strain/Indicator: TA97, Metabolic Activation: RAT, LIVER, S-9, AROCLOR 1254, Method: STANDARD PLATE): inactive; negative
mutagenic call [4]: inactive; negative
mutagenic call [5]: inactive; negative
mutagenic call [3]: inactive; negative
mutagenic call [6]: inactive; negative
mutagenic call (Test System: AMES SALMONELLA TYPHIMURIUM, Strain/Indicator: TA104, Metabolic Activation: NONE, Method: STANDARD PLATE): inactive; negative
mutagenic call (Test System: AMES SALMONELLA TYPHIMURIUM, Strain/Indicator: TA104, Metabolic Activation: RAT, LIVER, S-9, AROCLOR 1254, Method: STANDARD PLATE): inactive; negative

Cn1c(N)nc2nc3ncccc3cc21
mutagenic call (Test System: AMES SALMONELLA TYPHIMURIUM, Strain/Indicator: TA98, Metabolic Activation: RAT, LIVER, S-9, AROCLOR 1254A, Method: STANDARD PLATE): inactive; negative
mutagenic call (Test System: AMES SALMONELLA TYPHIMURIUM, Strain/Indicator: YG1024, Metabolic Activation: RAT, LIVER, S-9, AROCLOR 1254A, Method: STANDARD PLATE): active; positive

COC(=O)C1Cc2c([nH]c3ccc([N+](=O)[O-])cc23)C(C)N1N=O (stereo not given)
mutagenic call (Test System: AMES SALMONELLA TYPHIMURIUM, Strain/Indicator: TA98(NR), Metabolic Activation: NONE, Method: STANDARD PLATE): active; positive
mutagenic call (Test System: AMES SALMONELLA TYPHIMURIUM, Strain/Indicator: TA98(NR), Metabolic Activation: RAT, LIVER, S-9, AROCLOR 1254, Method: STANDARD PLATE): inactive; negative

O=c1c2ccc3c4c(ccc(c24)c2nc4ccccc4n12)c(=O)n1c2ccccc2nc31
mutagenic call (Test System: AMES SALMONELLA TYPHIMURIUM, Strain/Indicator: TA97, Metabolic Activation: HAMSTER, LIVER, S-9, AROCLOR 1254 (10%), Method: PREINCUBATION): inactive; negative
mutagenic call (Test System: AMES SALMONELLA TYPHIMURIUM, Strain/Indicator: TA97, Metabolic Activation: NONE, Method: PREINCUBATION): active; positive
mutagenic call (Test System: AMES SALMONELLA TYPHIMURIUM, Strain/Indicator: TA97, Metabolic Activation: RAT, LIVER, S-9, AROCLOR 1254 (10%), Method: PREINCUBATION): inactive; negative
mutagenic call (Test System: AMES SALMONELLA TYPHIMURIUM, Strain/Indicator: TA98, Metabolic Activation: HAMSTER, LIVER, S-9, AROCLOR 1254 (10%), Method: PREINCUBATION): active; positive
mutagenic call [7]: active; positive
mutagenic call (Test System: AMES SALMONELLA TYPHIMURIUM, Strain/Indicator: TA98, Metabolic Activation: RAT, LIVER, S-9, AROCLOR 1254 (10%), Method: PREINCUBATION): inactive; negative
mutagenic call (Test System: AMES SALMONELLA TYPHIMURIUM, Strain/Indicator: TA100, Metabolic Activation: HAMSTER, LIVER, S-9, AROCLOR 1254 (10%), Method: PREINCUBATION): inactive; negative
mutagenic call [1]: inactive; negative
mutagenic call (Test System: AMES SALMONELLA TYPHIMURIUM, Strain/Indicator: TA100, Metabolic Activation: RAT, LIVER, S-9, AROCLOR 1254 (10%), Method: PREINCUBATION): inactive; negative
mutagenic call (Test System: AMES SALMONELLA TYPHIMURIUM, Strain/Indicator: TA1535, Metabolic Activation: HAMSTER, LIVER, S-9, AROCLOR 1254 (10%), Method: PREINCUBATION): inactive; negative
mutagenic call [8]: inactive; negative
mutagenic call (Test System: AMES SALMONELLA TYPHIMURIUM, Strain/Indicator: TA1535, Metabolic Activation: RAT, LIVER, S-9, AROCLOR 1254 (10%), Method: PREINCUBATION): inactive; negative
